Measured values as given in PubChem BioAssay (NCI).
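Each compound was tested at five concentrations against cells in 96-well plates for 48 hours. Here, GI50 denotes the concentration required for 50% inhibition of growth. TGI denotes the concentration required for complete inhibition of growth.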

Columns and labels:
Test in all cases: DTP human tumour cell line panel, 48 h
ACHN renal = test system: ACHN renal
HT29 colon = test system: HT29 colon
MDA-MB-435 = test system: MDA-MB-435
NCI/ADR-RES ovarian = test system: NCI/ADR-RES ovarian
PC-3 prostate = test system: PC-3 prostate
SF-295 CNS = test system: SF-295 CNS
SK-MEL-2 melanoma = test system: SK-MEL-2 melanoma
SW-620 colon = test system: SW-620 colon
HOP-92 NSCLC = test system: HOP-92 NSCLC
LOX IMVI melanoma = test system: LOX IMVI melanoma

Row | SMILES | TGI (ACHN renal) [µM] | TGI (HT29 colon) [µM] | TGI (MDA-MB-435) [µM] | TGI (NCI/ADR-RES ovarian) [µM] | TGI (PC-3 prostate) [µM] | TGI (SF-295 CNS) [µM] | TGI (SK-MEL-2 melanoma) [µM] | TGI (SW-620 colon) [µM] | TGI (HOP-92 NSCLC) [µM] | TGI (LOX IMVI melanoma) [µM] | GI50 (ACHN renal) [nM] | GI50 (HOP-92 NSCLC) [nM] | GI50 (HT29 colon) [nM] | GI50 (MDA-MB-435) [nM] | GI50 (NCI/ADR-RES ovarian) [nM] | GI50 (SK-MEL-2 melanoma) [nM]
1 | c1ccc(/C(=N/Nc2ccncn2)c2ccccn2)cc1 | 88.1 | > 100 | > 100 | 49 | > 100 | 64.9 | > 100 | > 100 | – | – | – | – | – | – | – | –
2 | COc1ccc(Nc2ccc3ccccc3c2-c2c(O)ccc3ccccc23)cc1 | 29.8 | 29.6 | 20.3 | 36.5 | 29.3 | 34.6 | 28.3 | 28.2 | 14.3 | 37.7 | – | – | – | – | – | –
3 | O=C1C=CC(=O)c2c(O)c(NCCOCCO)c(Cl)c(O)c21 | 28.7 | – | – | – | – | 24.1 | 21.7 | 11 | 39.4 | 16.7 | – | – | – | – | – | –
4 | C=CC[n+]1c2ccccc2n2cc([N+](=O)[O-])ccc21 | > 100 | 39.4 | 89.2 | > 100 | > 100 | > 100 | 95.8 | > 100 | 46.5 | > 100 | – | – | – | – | – | –
5 | C=CCOn1c(C=C)nc2ccc(C)cc21 | 59.6 | 30.2 | 44.5 | > 100 | 31 | 82.6 | 30.6 | 40.8 | > 100 | 37.5 | – | – | – | – | – | –
6 | Cc1c(C(=O)OCc2ccccc2)[n+](=O)c2cc(Cl)c(Cl)cc2n1[O-] | 53.7 | 32.2 | 42.4 | 48.4 | 55 | 37.4 | 38.6 | – | 20 | 35.7 | – | – | – | – | – | –
7 | COc1cccc(N[C@@H]2c3cc4c(cc3C(c3cc(OC)c(O)c(OC)c3)[C@H]3C(=O)OCC32)OCO4)c1 (stereo partly drawn) | – | 10.5 | – | > 70.2 | – | 2.5 | 11.2 | > 43.2 | 9.33 | 10.3 | – | – | – | – | – | –
8 | Cc1ccc(S(=O)CC(CF)OCn2cc(C)c(=O)[nH]c2=O)cc1 (stereo not drawn) | > 100 | – | > 100 | > 100 | > 100 | > 100 | > 100 | > 100 | > 100 | > 100 | – | – | – | – | – | –
9 | NNC(=O)C1(NC(=O)c2ccccc2)C(c2ccccc2)C(c2ccccc2)=NN1c1ccccc1 (stereo not drawn) | > 100 | – | > 100 | > 100 | > 100 | > 100 | > 100 | > 100 | – | > 100 | – | – | – | – | – | –
10 | COc1cccc(C=O)c1[O-].[O]=[U](=[O])([OH2+])[OH2+] | 79.8 | > 100 | – | – | – | 78.6 | > 100 | > 100 | > 100 | > 100 | – | – | – | – | – | –
11 | C=C(C)[C@H]1C2=CC(C)=C(O2)[C@@H](O[C@@H]2c3oc(cc3C)[C@H](C(=C)C)[C@H]3C=C(CC[C@H]2C(=C)C)C(=O)O3)[C@H](C(=C)C)CCC2=C[C@H]1OC2=O | > 100 | – | > 100 | > 100 | > 100 | > 100 | > 100 | > 100 | > 100 | > 100 | – | – | – | – | – | –
12 | CC1(C)CC2(CC(C)(C)N1O)NC(=O)OC2=O | – | > 100 | – | > 100 | – | > 100 | > 100 | > 100 | > 100 | > 100 | – | – | – | – | – | –
13 | O=C1NC(=O)C(C(CC(=O)c2ccc(Cl)cc2)c2ccc(Cl)cc2)C(=O)N1 (stereo not drawn) | > 100 | > 100 | > 100 | – | > 100 | > 100 | > 100 | > 100 | > 100 | > 100 | – | – | – | – | – | –
14 | CN1CC2=C(NC(=S)NC2c2ccccc2)/C(=C/c2ccccc2)C1 (stereo not drawn) | > 100 | 71.7 | > 100 | > 100 | > 100 | > 100 | > 100 | > 100 | – | > 100 | – | – | – | – | – | –
15 | Cc1cc(C)c2c(c1)C(=O)/C(=C/c1ccccc1C(=O)O)C2 | > 100 | > 100 | – | – | > 100 | > 100 | > 100 | > 100 | > 100 | > 100 | – | – | – | – | – | –
16 | COc1ccc(C(=O)CC(c2ccccc2)[C@H]2C(c3ccc(OC)cc3)=Nc3c(nc(SC)n(C)c3=O)NC2c2ccccc2)cc1 (stereo partly drawn) | – | > 100 | > 100 | > 100 | > 100 | > 100 | > 100 | > 100 | > 100 | > 100 | – | – | – | – | – | –
17 | COc1ccc(-c2oc3cc(O)cc(O)c3c(=O)c2OC)cc1 | > 100 | 68.3 | > 100 | > 100 | > 100 | > 100 | – | > 100 | 16.1 | > 100 | – | – | – | – | – | –
18 | Cc1nc(N)c(N2CCN(CN)CC2)c(=O)[nH]1 | > 100 | > 100 | > 100 | > 100 | > 100 | > 100 | > 100 | > 100 | – | > 100 | – | – | – | – | – | –
19 | CN(C)/N=N/c1nc2c(c(=O)n(C)c(=O)n2C)n1CC(O)CO (stereo not drawn) | > 100 | > 100 | > 100 | > 100 | > 100 | > 100 | > 100 | > 100 | – | – | – | – | – | – | – | –
20 | Cc1ccc(S(=O)(=O)Nc2nnc(S(N)(=O)=O)s2)cc1 | > 100 | – | > 100 | > 100 | – | > 100 | > 100 | > 100 | > 100 | > 100 | – | – | – | – | – | –
21 | CCN=C1C=CC(=C(c2ccc(N(CC)CC)cc2)c2ccc(N(CC)CC)cc2)c2ccccc21 | 1.07 | 1.01 | 0.428 | 2.11 | – | – | 0.383 | – | 0.0922 | – | 194 | 17.5 | 33 | 73.3 | 350 | 76.8
22 | c1ccc(CN2CCC(Nc3ccccc3)(c3nnnn3Cc3ccccc3)CC2)cc1 | > 100 | 24.2 | > 100 | > 100 | – | 44.8 | – | 60.6 | 34.5 | 43.5 | – | – | – | – | – | –
23 | C=CCC1C(O[Si](C)(C)C(C)(C)C)C(CO[Si](C)(C)C(C)(C)C)OC1n1ccc(=O)[nH]c1=O (stereo not drawn) | – | 2.8 | 4.33 | 3.48 | 3.72 | 3.59 | 4.65 | 2.84 | 2.5 | 2.25 | – | – | – | – | – | –
